What all share (assay type): in vivo, rat
For experiment [1], the system named is hippocampal CA1 pyramidal cells. The experiment can be described thus: Neuron viability in hippocampal CA1 of normal and nitric oxide (NO) deficient rats. The conditions noted are these: for viable pyramidal cells in CA1: nitric oxide (NO) deficient rats, 12-week L-NAME administration, FIG. 1a. As to the method:
(§1) Neuroprotective activities of polyphenol-rich palm leaves extract and captopril were evaluated in normal and nitric oxide (NO) deficient rats by assessing neuron viability of three subfields in the hippocampus; CA1. CA3 and DG. […] CA3 and DG of the hippocampus, and that co-administration with palm leaves extract attenuated this effect more effectively than with captopril. The pronounced loss of neurons with L-NAME administration caused the impairment in acquisition, but not retention, of spatial memory in the radial-arm maze task and the Morris water maze task. The neuroprotective effect of palm leaves extract was not significant in normal adult rats where loss of neurons have not occurred.

Experiment [2] deals with hippocampal CA3 pyramidal cells. The experiment in a line: Neuron viability in hippocampal CA3 of normal and nitric oxide (NO) deficient rats. The conditions noted are these: nitric oxide (NO) deficient rats, 12-week L-NAME administration; FIG. 1b. Here is the method: as §1, with “DG. […] No significant difference in viability was observed between all 3 groups of normal rats.” for “DG.”

In experiment [3] the test system is brain superoxide dismutase (SOD). The experiment can be described thus: Brain superoxide dismutase (SOD) activities in normal and NO deficient rats.
Experiment [4] relates to hippocampal dentate gyrus (DG) granule cells. The experiment can be described thus: Neuron viability in hippocampal dentate gyrus of normal and nitric oxide (NO) deficient rats. As to conditions: nitric oxide (NO) deficient rats, 12-week L-NAME administration; FIG. 1c. Here is the method:
as §1, with “DG. […] The viability values of all 3 normal groups were similar.” for “DG.”

Another experiment relates to brain catalase. The experiment can be described thus: Brain catalase in normal and NO deficient rats. As to conditions: normal rats, FIG. 2c.
The test system of experiment [5] is brain malondialdehyde (MDA). The experiment in a line: Brain malondialdehyde (MDA) concentrations in normal and NO deficient rats. As to conditions: normal rats, FIG. 2d.

The text below walks through data of patent US20110311657A1, “Use of a Neuroprotective Extract and Pharmaceutical Preparation Thereof” (Universiti Putra Malaysia, priority 2009, published 2011).

With `COC(=O)[C@@H](N)CCCNC(=N)N[N+](=O)[O-]` [L-NAME], in experiment [1], the “viable pyramidal cells in CA1” value is 40%. For the same compound, the “CA3 pyramidal cells viability” value in experiment [2] is given as 15%. Moreover, in experiment [3] (L-NAME administration alone, FIG. 2a), the “superoxide dismutase (SOD) activity” value is given as “decreased”.

On to `C[C@H](CS)C(=O)N1CCC[C@H]1C(=O)O` [captopril], for which the “viable pyramidal cells in CA1” value in experiment [1] is “partial neuroprotection”. Also, the “viable pyramidal cell count in CA1 compared to control” value in experiment [1] (normal rats) is given as “no significant change”. In addition, the “CA3 pyramidal cells viability” value in experiment [2] stood at 35%. In experiment [4], the “viable granule cells in dentate gyrus (DG) / neurons protected from degeneration” value was determined as 34%. For the same compound, the “increase of superoxide dismutase (SOD) activities compared with L-NAME treated animals” value in experiment [3] (nitric oxide (NO) deficient rats, FIG. 2a) was 51%. Besides, the “superoxide dismutase (SOD) activity” value in experiment [3] (normal rats) is listed as “maintaining”. The “catalase activity compared to control” value in the experiment on brain catalase is listed as “depleted significantly”. In experiment [5], the “malondialdehyde (MDA) level” value was “maintaining”.
